Values joined by “and” are separate entries in the source; they are usually repeats but may differ in a detail not shown here. Equal entries are not always repeated. “Also recorded” adds a separate entry of the source.
Key:
β-amyloid [1] = biological target: T1, β-amyloid (Homo sapiens, UniProt P05067); assay: Plasma β-amyloid concentration before and after administration of EPPS, B−A by Equation 1; assay type: in vivo, APP/PS1 transgenic mice; set-up: tissue Jackson Laboratory (mice); host or cells: plasma / whole blood of female APP/PS1 transgenic mice; B-A (1 day) / B-A (5 days) / B-A (19 days) / B-A (33 days): unit not given here; settings: for B-A (1 day): average of three measurements
Description: Female APP/PS1 transgenic mice were used as test animals. A total of 32 mice were used (eleven 5-6 month-olds and twenty-one 7.2-8.6 and 13 month-olds). 5-6-month-old mice were used since β-amyloid plaque accumulation in the brain begins from 5 months.
The transgenic APP/PS1 mouse model was B6C3-Tg(APPswe, PSEN1dE9)85Dbo/Mmjax purchased from the Jackson Laboratory (USA) and maintained and used for experiments under the guideline of the Animal Care and Use Committee.
EPPS was administered to each of the 32 mice at a dose of 1,000 mg/kg/day.
Blood was drawn from the of the retro-orbital venous plexus of the mouse using a microtube (Marienfeld, Germany) treated with 80 IU/mL heparin before and after the administration of EPPS. The blood drawing after the administration of EPPS was performed 1 day, 5 days, 19 days and 33 days after the administration of EPPS.
The blood was collected in an Eppendorf tube and centrifuged at 13,500 rpm and 4° C. for 5 minutes. Plasma separated from the cell fraction was collected in an Eppendorf tube for immediate use or for storage at −80° C. for later use.
β-Amyloid concentration in the plasma collected before and after the administration of EPPS was measured by detection units 1 and 2 of a kit. B−A was calculated by a calculation unit from the measured concentrations using [Equation 1].

[2] = test system: β-amyloid oligomers, profibrils, fibrils and plaques; assay: Electron microscopic observation of β-amyloid aggregates; assay type: biochemical; settings: electron microscopy
β-amyloid [3] = biological target: T1, β-amyloid; assay: β-amyloid concentration in plasma and whole blood treated with EPPS (APP/PS1 transgenic mouse); set-up: tissue Jackson Laboratory (mice); host or cells: plasma / whole blood of female APP/PS1 transgenic mice; settings: 9-month-old APP/PS1 mice
Description: 9-month-old female APP/PS1 transgenic mice were used as test animals.
The transgenic APP/PS1 mouse model was B6C3-Tg(APPswe,PSEN1dE9)85Dbo/Mmjax purchased from the Jackson Laboratory (USA) and bred and used for experiments under the guideline of the Animal Care and Use Committee.
Sample treatment and β-amyloid concentration measurement were conducted in the same manner as in Example 1.

[4] = test system: β-amyloid oligomers, profibrils, fibrils and plaque aggregates; assay: SDS-PAGE analysis of dissociation of β-amyloid aggregates; assay type: biochemical
β-amyloid [5] = biological target: T1, β-amyloid; assay: β-amyloid monomer concentration in plasma and whole blood treated with EPPS (APP/PS1/Tau transgenic mouse); set-up: tissue Jackson Laboratory (mice); host or cells: plasma / whole blood of 5-month-old female APP/PS1/Tau transgenic mice, treated ex vivo with EPPS; settings: 5-month-old APP/PS1/Tau mice
Source text: 5-month-old female APP/PS1/Tau transgenic mice were used as test animals.
The transgenic APP/PS1/Tau mouse model was B6;129-Psen1tm1MpmTg(APPSwe,tauP301L)1Lfa/Mmjax purchased from the Jackson Laboratory (USA) and maintained and used for experiments under the guideline of the Animal Care and Use Committee.
Blood was collected in K2 EDTA-treated vacuum tube containing Roche Complete Mini (protease inhibitor) solution and centrifuged. Plasma separated from the cell fraction was collected in an Eppendorf tube and prepared into 0.1-mL samples, which were used immediately or stored at −80° C. for later use. Whole blood was collected in an Eppendorf tube by treating with EPPS and separating plasma from the cell fraction and prepared into 0.1-mL samples, which were used immediately for β-amyloid concentration measurement or stored at −80° C. for later use.
The plasma was treated with water (control group) or EPPS (EPPS group).
As for the EPPS group, 15 μL of the plasma was treated with 5 μL of 400 mM EPPS, so that the final EPPS concentration was 100 mM. As for the control group, 15 μL of plasma was treated with 5 μL of PBS, so that the concentration was the same as that of the EPPS group. […]
The whole blood was analyzed after treating with EPPS. […]
The β-amyloid concentration in each plasma was measured using detection units 1 and 2 and MB/MP was calculated by a calculation unit using [Equation 2].

[6] = Aged (7.2 months or older) female APP/PS1 mice, one value per mouse, EPPS 1,000 mg/kg/day, plasma β-amyloid after minus before
[7] = EPPS-treated whole blood / EPPS-treated plasma (Equation 2)
[8] = control plasma / EPPS-treated plasma (Equation 3)

T1 sequence (P05067 672-713 limits assumed): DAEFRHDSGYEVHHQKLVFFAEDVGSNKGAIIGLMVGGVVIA

O=S(=O)(O)CCCN1CCN(CCO)CC1 [EPPS, 4-(2-Hydroxyethyl)-1-piperazinepropanesulfonic acid]
β-amyloid 42 concentration in plasma after administration (FIG. 3a) (β-amyloid [1]; 5-6-month-old (young) and 7.2-month-old (aged) mice, before vs 24 hours after): significant increase
β-amyloid 42 concentration in plasma, course over time (FIG. 3b) (β-amyloid [1]; 7.2-month-old (aged) mice, 1, 5, 19 and 33 days after administration): significant increase in β-amyloid 42 concentration followed by decrease
B−A value (sign) (β-amyloid [1]; 24 hours (1 day) after administration of EPPS, all the mice): positive (+)
B-A (5 days) (β-amyloid [1]; [6]): 93.531 and 163.986 and 51.584 and 76.049 and 170.979 and 86.122 and 108.916 and 311.820 and 134.965 and 170.656 and 207.692 and 55.115 and 209.711 and 88.441 and 105.420 and 130.096 and 118.007 and 70.105 and 185.315 and 66.259 and 214.549
B-A (19 days) (β-amyloid [1]; [6]): 298.504 and 52.809 and 70.596 and 86.108 and 129.025 and 57.487 and 53.294 and 43.826 and 101.221 and 82.444 and 136.814 and 131.569 and 88.695 and 61.725 and 27.070 and 32.708 and 22.406 and 20.515 and 59.409
B-A (33 days) (β-amyloid [1]; [6]): 114.33 and 23.509 and 148.154 and 21.599 and 71.410 and 4.797 and 24.240 and 11.079 and 42.621 and 31.969 and 60.179 and 39.237 and 23.448 and 33.902 and 41.596 and 59.545 and 31.762 and 51.292 and 78.101
B-A (1 day) (β-amyloid [1]; [6]): 78.802 and 41.434 and 20.276 and 12.442 and 15.385 and 7.373 (2×) and 182.867 and 10.138 and 13.364 and 11.060 and 4.147 and 140.559 and 16.129 and 194.580 and 18.894 and 6.119 and 345.979 and 19.816 and 156.294 and 180.594
B-A (1 day) (β-amyloid [1]; Young (5-6 months) female APP/PS1 mice, one value per mouse, EPPS 1,000 mg/kg/day, plasma β-amyloid after minus before): 52.151 and 22.674 and 98.547 and 20.430 and 191.398 and 124.731 and 108.065 and 102.326 and 89.535 and 94.186 and 146.802
B−A value, course over time (β-amyloid [1]; since 19 days after the administration of EPPS): began to decrease
Dissociation of β-amyloid aggregates by electron microscopic observation [2]: no β-amyloid aggregates are observed; also recorded: confirms the activity of dissociating β-amyloid dimers, oligomers, profibrils, fibrils and plaques
MB/MP (β-amyloid [3]; [7]): 0.79
UP/MP (β-amyloid [3]; [8]): 0.99
MP Aβ concentration (monomer concentration in plasma of the EPPS group) (β-amyloid [3]; plasma treated with EPPS, average of three measurements): 151.58 ± 24.03
Dissociation of β-amyloid aggregates (bands of Aβ 40 and Aβ 42 monomers, 4.3-4.5 kD) [4]: has the activity of dissociating β-amyloid oligomers, profibrils, fibrils and plaque aggregates; also recorded: has the activity of dissociating β-amyloid dimer, oligomer, profibril, fibril and plaque aggregates
MB/MP (β-amyloid [5]; [7]): 0.61
UP/MP (β-amyloid [5]; [8]): 0.92

Reference: patent publication US10006920B2, “Diagnostic kit for diagnosis of abnormal protein aggregation- or misfolding-related diseases using dissociation of protein aggregates” (KOREA INSTITUTE OF SCIENCE AND TECHNOLOGY, priority 2013, dated 2018)
